# Reference: article PMC10943827, “Engineering Saccharomyces cerevisiae for targeted hydrolysis and fermentation of glucuronoxylan through CRISPR/Cas9 genome editing” (Microbial Cell Factories, 2024)
# Target: T1, XylA (Aspergillus oryzae, UniProt Q2UR38)
# T1 construct: gene xlnD; codon-optimized gene, N-terminal S. cerevisiae SED1 secretory signal peptide, expressed from X2 locus of S. cerevisiae CEN.PK XXX; secretome, intact cells and lysate assayed
# T1 sequence (Q2UR38 21-798): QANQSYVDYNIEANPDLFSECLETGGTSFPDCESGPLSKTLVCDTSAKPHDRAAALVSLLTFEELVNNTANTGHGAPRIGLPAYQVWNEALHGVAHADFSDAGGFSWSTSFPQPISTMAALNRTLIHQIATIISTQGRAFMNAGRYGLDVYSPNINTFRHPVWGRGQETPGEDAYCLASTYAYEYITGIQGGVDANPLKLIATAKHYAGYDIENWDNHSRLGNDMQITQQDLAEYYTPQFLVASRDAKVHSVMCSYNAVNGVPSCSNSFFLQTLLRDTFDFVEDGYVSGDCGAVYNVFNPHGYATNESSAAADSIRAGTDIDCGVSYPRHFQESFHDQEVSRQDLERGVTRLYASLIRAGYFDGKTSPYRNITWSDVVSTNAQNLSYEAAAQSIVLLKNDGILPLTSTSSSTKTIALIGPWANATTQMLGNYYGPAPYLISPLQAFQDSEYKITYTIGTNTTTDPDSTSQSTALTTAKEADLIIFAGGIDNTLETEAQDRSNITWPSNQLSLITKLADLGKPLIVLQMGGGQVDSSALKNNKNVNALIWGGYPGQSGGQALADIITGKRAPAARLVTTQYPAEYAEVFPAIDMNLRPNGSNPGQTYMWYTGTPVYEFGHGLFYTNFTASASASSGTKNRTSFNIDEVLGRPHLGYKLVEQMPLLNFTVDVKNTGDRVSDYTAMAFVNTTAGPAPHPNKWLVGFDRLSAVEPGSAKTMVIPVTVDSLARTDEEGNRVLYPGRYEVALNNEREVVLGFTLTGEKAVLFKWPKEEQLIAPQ
# Assay: p-nitrophenol release at […] nm, secretome / cell / intracellular fractions of XylA strain versus parent XXX strain
# Assay type: cell-based
# Settings: 5 mM substrate, 20 mM sodium phosphate pH 7, 30 °C, 30 min
structure (smiles),measurement,value
O=[N+]([O-])c1ccc(O[C@@H]2OC[C@@H](O)[C@H](O)[C@H]2O)cc1 [p-nitrophenyl-β-D-xylopyranoside],"p-nitrophenol release at 405 nm, secretome / cell / intracellular fractions of X",subcellular β-xylosidase activity quantified using p-nitrophenyl-β-D-xylopyranoside
